# Results: ChEMBL document CHEMBL5608210 (Eur J Med Chem, 2024)
# Active and inactive are the calls of the source. The calls are words filed in the database; no cut-off is given here.
# Assays:
# [1] = biological target: T1, Fatty acid-binding protein, liver (Homo sapiens) (UniProt P07148); assay: Inhibition of human FABP1 at 9 uM incubated for 3 mins by fluorescence based analysis relative to control
# T1 sequence (whole entry): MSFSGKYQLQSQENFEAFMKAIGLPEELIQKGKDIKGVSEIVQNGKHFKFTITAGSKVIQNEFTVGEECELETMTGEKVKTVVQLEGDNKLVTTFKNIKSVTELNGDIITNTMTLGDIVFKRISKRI
# [2] = biological target: T2, Fatty acid-binding protein, liver (Homo sapiens, UniProt P07148); assay: Inhibition of human FABP1 incubated for 3 mins by fluorescence based analysis
# T2 sequence (P07148 whole entry): T1 sequence (whole entry)
# Mus musculus [3] = assay: Anti-NAFLD activity in high-fat diet induced obese male C57BL/6 mouse model assessed as reduction in AUC (0 to 90 mins) at 20 mg/kg, po administered everyday for 4 weeks by oral glucose tolerance test; assay type: functional, organism-based
# [4] = biological target: Fatty acid-binding protein, adipocyte (Homo sapiens, UniProt P15090); assay: Inhibition of FABP4 (unknown origin) incubated for 3 mins by fluorescence based analysis
# Fatty acid-binding protein, adipocyte, sequence (P15090 whole entry): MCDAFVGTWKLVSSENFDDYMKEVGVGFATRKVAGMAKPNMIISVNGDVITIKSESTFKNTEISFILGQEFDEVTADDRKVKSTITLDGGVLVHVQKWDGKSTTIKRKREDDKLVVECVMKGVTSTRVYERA
# Mus musculus [5] = assay: Anti-NAFLD activity in high-fat diet induced obese male C57BL/6 mouse model assessed as improvement in oral glucose tolerance at 20 mg/kg, po administered everyday for 4 weeks by oral glucose tolerance test; assay type: functional, organism-based
# [6] = Toxicity in high-fat diet induced obese male C57BL/6 mouse model assessed as effect on ALT level in serum at 20 mg/kg/day, po measured after 4 weeks by automatic biochemical analyzer; assay type: organism-based; conditions: in vivo, 672 h
# [7] = Toxicity in high-fat diet induced obese male C57BL/6 mouse model assessed as effect on AST level in serum at 20 mg/kg/day, po measured after 4 weeks by automatic biochemical analyzer; assay type: organism-based; conditions: in vivo, 672 h
# [8] = Toxicity in high-fat diet induced obese male C57BL/6 mouse model assessed as effect on ALP level in serum at 20 mg/kg/day, po measured after 4 weeks by automatic biochemical analyzer; assay type: organism-based; conditions: in vivo, 672 h
# [9] = Toxicity in high-fat diet induced obese male C57BL/6 mouse model assessed as effect on UA level in serum at 20 mg/kg/day, po measured after 4 weeks by automatic biochemical analyzer; assay type: organism-based; conditions: in vivo, 672 h
# [10] = Toxicity in high-fat diet induced obese male C57BL/6 mouse model assessed as effect on TBA level in serum at 20 mg/kg/day, po measured after 4 weeks by automatic biochemical analyzer; assay type: organism-based; conditions: in vivo, 672 h
# [11] = Toxicity in high-fat diet induced obese male C57BL/6 mouse model assessed as effect on TBIL level in serum at 20 mg/kg/day, po measured after 4 weeks by automatic biochemical analyzer; assay type: organism-based; conditions: in vivo, 672 h
# Mus musculus [12] = assay: Hepatoprotective activity in high-fat diet induced obese male C57BL/6 mouse model assessed reduction in hepatocyte steatosis at 20 mg/kg, po administered everyday for 4 weeks by H and E staining based analysis; assay type: functional, organism-based
# Mus musculus [13] = assay: Hepatoprotective activity in high-fat diet induced obese male C57BL/6 mouse model assessed reduction in inflammatory cell infiltration at 20 mg/kg, po administered everyday for 4 weeks by H and E staining based analysis; assay type: functional, organism-based
# Mus musculus [14] = assay: Hepatoprotective activity in high-fat diet induced obese male C57BL/6 mouse model assessed as reduction in LDL-C level in serum at 20 mg/kg/day, po measured after 4 weeks by automatic biochemical analyzer; assay type: functional, organism-based
# Mus musculus [15] = assay: Hepatoprotective activity in high-fat diet induced obese male C57BL/6 mouse model assessed as reduction in TC level in serum at 20 mg/kg/day, po measured after 4 weeks by automatic biochemical analyzer; assay type: functional, organism-based
# Mus musculus [16] = assay: Hepatoprotective activity in high-fat diet induced obese male C57BL/6 mouse model assessed as reduction in TG level in serum at 20 mg/kg/day, po measured after 4 weeks by automatic biochemical analyzer; assay type: functional, organism-based
# Mus musculus [17] = assay: Hepatoprotective activity in high-fat diet induced obese male C57BL/6 mouse model assessed as decrease in IL-6 level in liver at 20 mg/kg/day, po measured after 4 weeks by ELISA method; assay type: functional, organism-based
# Mus musculus [18] = assay: Hepatoprotective activity in high-fat diet induced obese male C57BL/6 mouse model assessed as decrease in IL-1 beta level in liver at 20 mg/kg/day, po measured after 4 weeks by ELISA method; assay type: functional, organism-based
# Mus musculus [19] = assay: Hepatoprotective activity in high-fat diet induced obese male C57BL/6 mouse model assessed as decrease in MCP-1 level in liver at 20 mg/kg/day, po measured after 4 weeks by ELISA method; assay type: functional, organism-based
# Mus musculus [20] = assay: Hepatoprotective activity in high-fat diet induced obese male C57BL/6 mouse model assessed as decrease in TNF-alpha level in liver at 20 mg/kg/day, po measured after 4 weeks by ELISA method; assay type: functional, organism-based
SMILES,inhibition [1] [%],also measured
O=C(O)CC(=O)N1CCN(S(=O)(=O)c2cccc3cccnc23)CC1,26.2,
O=C(O)CNC(=O)CNC(=O)c1ccc(NS(=O)(=O)c2cccc3cccnc23)cc1,11.9,
N#Cc1ccc(-c2ccccc2S(=O)(=O)N2CCN(S(=O)(=O)c3cccc4cccnc34)CC2)cc1,61.2,IC50 [2]: 2.66 µM
O=C(c1ccc(NS(=O)(=O)c2cccc3cccnc23)cc1)N1CCN(C(=O)C2(C(=O)O)CC2)CC1,29.9,
O=C(O)C1(C(=O)N2CCN(S(=O)(=O)c3cccc4cccnc34)CC2)CC1,30.5,
O=C(O)c1ccc(-c2ccccc2S(=O)(=O)N2CCN(S(=O)(=O)c3cccc4cccnc34)CC2)cc1,68.3,IC50 [2]: 2.11 µM
O=C(O)C[C@H](NC(=O)c1ccc(NS(=O)(=O)c2cccc3cccnc23)cc1)C(=O)O,13.1,
CCc1c(-c2ccccc2)c(-c2ccccc2)nn1-c1ccccc1-c1cccc(OCC(=O)O)c1,,IC50 [2]: 2.71 µM
O=C(O)CCCCCCCOc1cccc(NS(=O)(=O)c2ccc(-c3ccccc3)cc2)c1,73.5,IC50 [2]: 3.24 µM
O=C(O)CNC(=O)c1ccc(NS(=O)(=O)c2cccc3cccnc23)cc1,16.1,
O=C(O)CCNC(=O)c1ccc(NS(=O)(=O)c2cccc3cccnc23)cc1,15.3,
O=C(O)CNC(=O)CNS(=O)(=O)c1cccc2cccnc12,10.1,
O=S(=O)(c1ccccc1-c1ccc(F)cc1)N1CCN(S(=O)(=O)c2cccc3cccnc23)CC1,52.7,IC50 [2]: 5.66 µM
O=C(O)C1(c2cccc(-c3ccc(OCc4c(-c5c(Cl)cccc5Cl)noc4C4CC4)cc3)c2)CC1,,IC50 [4]: 6.2 µM
O=C(O)CCC(NC(=O)N1CCN(S(=O)(=O)c2cccc3cccnc23)CC1)C(=O)O (stereo not given),31.6,
O=C(O)CNS(=O)(=O)c1cccc2cccnc12,4.26,
O=C(O)CC[C@H](NC(=O)c1ccc(NS(=O)(=O)c2cccc3cccnc23)cc1)C(=O)O,12.2,
O=S(=O)(c1ccc(-c2ccccc2)cc1)N1CCNCC1,0.18,
O=C(O)CCCCCCCOc1cccc(NS(=O)(=O)c2cccc3cccnc23)c1,69.3,IC50 [2]: 3.02 µM

# Further lines, with some results ahead:
inhibition [1] [%],SMILES,also measured
72.5,O=C(O)CCCCCCCOc1ccc(NS(=O)(=O)c2cccc3cccnc23)cc1,IC50 [2]: 2.44 µM
12.1,O=C(O)CC(NC(=O)C1CCCN(S(=O)(=O)c2cccc3cccnc23)C1)C(=O)O (stereo not given),
78.1,O=S(=O)(c1ccccc1-c1cccc(O)c1)N1CCN(S(=O)(=O)c2cccc3cccnc23)CC1,Activity (Mus musculus [3]): Active; IC50 [2]: 1.18 µM; IC50 [4]: > 80 µM; Activity (Mus musculus [5]): Active; Activity [6]: Non-Toxic; Activity [7]: Non-Toxic; Activity [8]: Non-Toxic; Activity [9]: Non-Toxic; Activity [10]: Non-Toxic; Activity [11]: Non-Toxic; Activity (Mus musculus [12]): Active; Activity (Mus musculus [13]): Active; Activity (Mus musculus [14]): Active; Activity (Mus musculus [15]): Active; Activity (Mus musculus [16]): Active; Activity (Mus musculus [17]): Active; Activity (Mus musculus [18]): Active; Activity (Mus musculus [19]): Active; Activity (Mus musculus [20]): Active
63.8,Cc1cc(F)ccc1-c1ccccc1S(=O)(=O)N1CCN(S(=O)(=O)c2cccc3cccnc23)CC1,IC50 [2]: 6.11 µM
10.3,O=C(O)CCC(NC(=O)C1CCCN(S(=O)(=O)c2cccc3cccnc23)C1)C(=O)O (stereo not given),
11.5,O=C(C1CCCN(S(=O)(=O)c2cccc3cccnc23)C1)N1CCNCC1 (stereo not given),
20.3,CC1CN(S(=O)(=O)c2cccc3cccnc23)CCN1C(=O)CC(=O)O (stereo not given),
20.9,CSCCC(NS(=O)(=O)c1cccc2cccnc12)C(=O)O (stereo not given),
3.47,O=C(O)CCNS(=O)(=O)c1cccc2cccnc12,
21.1,O=C(O)C1(C(=O)N2CCN(S(=O)(=O)c3ccc(-c4ccccc4)cc3)CC2)CC1,
13.4,O=C(O)CC(=O)N1CCN(S(=O)(=O)c2ccc(-c3ccccc3)cc2)CC1,
23.8,O=C(O)CC(=O)N1CCN(C(=O)c2ccc(NS(=O)(=O)c3cccc4cccnc34)cc2)CC1,
13.7,O=C(O)C1CCCN(S(=O)(=O)c2cccc3cccnc23)C1 (stereo not given),
8.28,O=C(O)c1cccc(NS(=O)(=O)c2cccc3cccnc23)c1,
1.28,O=C(O)c1ccc(NS(=O)(=O)c2cccc3cccnc23)cc1,
